“And” between values parts separate entries of the source, which are not always exact repeats. Equal entries are not always repeated.
Experiments:
intestinal lactase [1] = biological target: T1, intestinal lactase (Homo sapiens, UniProt P09848); assay: Lower limits of normal (cut-off points) of xylose in urine and blood of healthy controls after 4-GX; type: in vivo; conditions: mean minus 1.96 SD of healthy controls
T1 construct: after its oral administration it is hydrolysed by the intestinal mucosa enzyme; from tissue; host or cells: small-intestinal mucosa (enterocyte brush border) of living human volunteers and patients, in vivo
T1 sequence (P09848 869-1927): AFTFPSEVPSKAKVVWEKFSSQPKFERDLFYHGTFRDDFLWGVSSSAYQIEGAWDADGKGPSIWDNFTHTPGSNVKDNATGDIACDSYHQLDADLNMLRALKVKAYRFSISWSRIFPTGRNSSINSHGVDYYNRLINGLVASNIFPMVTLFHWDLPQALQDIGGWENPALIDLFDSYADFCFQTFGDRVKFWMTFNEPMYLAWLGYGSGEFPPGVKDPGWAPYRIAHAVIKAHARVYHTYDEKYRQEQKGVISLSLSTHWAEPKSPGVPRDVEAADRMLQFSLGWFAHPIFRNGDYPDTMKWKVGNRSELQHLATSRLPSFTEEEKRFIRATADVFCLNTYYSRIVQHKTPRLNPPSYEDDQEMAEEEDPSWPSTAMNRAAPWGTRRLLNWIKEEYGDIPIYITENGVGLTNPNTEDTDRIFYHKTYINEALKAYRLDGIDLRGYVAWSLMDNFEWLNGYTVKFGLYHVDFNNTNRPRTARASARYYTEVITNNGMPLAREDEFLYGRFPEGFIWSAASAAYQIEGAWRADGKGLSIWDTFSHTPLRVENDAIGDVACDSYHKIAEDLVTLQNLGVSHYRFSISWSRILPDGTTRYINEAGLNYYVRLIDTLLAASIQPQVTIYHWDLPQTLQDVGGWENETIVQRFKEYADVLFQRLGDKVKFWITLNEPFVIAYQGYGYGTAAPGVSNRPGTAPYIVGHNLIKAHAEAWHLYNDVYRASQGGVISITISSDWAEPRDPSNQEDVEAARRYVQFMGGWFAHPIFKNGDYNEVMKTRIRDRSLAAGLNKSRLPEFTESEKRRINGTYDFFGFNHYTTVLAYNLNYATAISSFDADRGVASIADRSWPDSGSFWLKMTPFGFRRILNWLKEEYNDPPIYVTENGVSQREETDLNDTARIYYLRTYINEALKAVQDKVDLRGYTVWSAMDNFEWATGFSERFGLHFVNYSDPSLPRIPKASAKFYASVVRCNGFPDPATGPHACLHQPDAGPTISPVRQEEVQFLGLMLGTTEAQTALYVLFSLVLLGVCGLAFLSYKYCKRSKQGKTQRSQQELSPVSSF
Text: The indicator of the lower limit of normal was taken to be the difference between the average xylose concentrations in blood and/or the difference between the average total amounts of xylose excreted in the urine, and 1.96 times the standard deviation.
The data obtained with the 4-GX administration test in the healthy control group was used to determine the lower limits of normal of xylose in urine and blood (cut-off points). The cut-off points for the 4-GX test in urine were obtained for times of 4 hours and 5 hours because, as already seen in example 2, these times are the best for determining the amount of xylose excreted in urine following 4-GX administration and performing a reliable diagnosis of lactase deficiency. Similarly, the cut-off points for the determination of the blood xylose concentration following 4-GX administration were obtained for the time of 90 minutes following ingestion of the disaccharide. The difference between the average xylose concentration (in blood and the total quantity of xylose excreted in the urine) and 1.96 times the standard deviation was used for the lower limit of normal indicator. The lower limit of xylose accumulated in 4-hour urine was 27.58 mg; xylose accumulated in 5-hour urine was 37.87 mg and the increase in the concentration of plasma xylose after 90 minutes following ingestion of the product, compared to basal blood, was 0.97 mg/dL.

intestinal lactase [2] = biological target: T1, intestinal lactase; assay: 4-GX test in 4-hour urine, patients with symptoms suggestive of lactose intolerance; type: in vivo
Method: The diagnostic tests to which these patients were subjected were: • Intestinal biopsy: determining intestinal lactase activity therein. • Hydrogen breath test after the oral administration to patients of 50 g of lactose. While this test was being carried out, several capillary-blood glucose test (Glycemia tests) were carried out, calculating the highest increase observed in the blood glucose concentration compared to basal glucose level before starting the test. • 4-GX test in total urine at 0-4 and 0-5 hours, which was orally administered to patients 0.5 g of this product (or 0.45 g in a 4-GX sample including 10 wt % water), collecting the total urine accumulated over 0-4 h and 0-5 h following the administration of 4-GX and determining the amount of excreted xylose in both volumes of urine. • 4-GX test in blood which was orally administered to patients 3 g of this product (or 2.7 g in a 4-GX sample including 10 wt % water) to determine the concentration of plasma xylose in a blood sample 90 minutes after ingestion of the product. The concentration obtained was compared to a basal blood sample extracted before ingestion of 4-GX.
The 4-GX was orally administered in a single dose dissolved in 100 ml of water.
From here on, the optimum dose of 0.5 g of 4-GX (or 0.45 g in a 4-GX sample including 10 wt % water) was used in the 4-GX urine test for the diagnosis of intestinal lactase deficiency by the non-invasive method described in the present invention. This dose was dissolved in 100 ml water, and following the test protocol, 2 samples of urine excreted during the 5 hours following the administration of the drug were taken, in two interval groups: at 4 hours following administration of 4-GX and at 5 hours following administration of 4-GX.
From the data obtained from the various urine tests for intestinal lactase deficiency following oral ingestion of 4-GX described in the present invention, a descriptive statistical analysis was performed of the amount of xylose excreted in the urine up to 4 hours and up to 5 hours following said administration. The same was done with the blodd test for intestinal lactase activity following oral ingestion of 4-GX, where descriptive statistical analysis was performed on the amount of xylose present in the plasma of subjects at 90 minutes following administration of 4-GX. The net increase in the plasma xylose concentration compared to basal values was also calculated.
To obtain the statistical parameters of lactase determination using the various 4-GX tests described in the present invention and later to compare them with the results obtained from the intestinal biopsy test, hydrogen in exhaled air test and capillary-blood glucose test, the normal limits of the measurement of the total amount of xylose excreted in 4-hour and 5-hour urine and the concentration of blood xylose after 90 minutes following ingestion of 4-GX described in Table 5 were used. The normal limits for the other tests were those used in common clinical practice for the diagnosis of lactose intolerance (Arola, H. (1994) Diagnosis of hypolactasia and lactose malabsorption. Scand. J. Gastroenterol. […] (Suppl), 26-35), which are:
For the measurement of lactase by intestinal biopsy, the lower normal limit is established at 10 units/g protein, with values less than this being considered positive.

[3] = 0.5 g 4-GX, 0-4 h urine, cut-off 27.58 mg, 205 patients
[4] = 0.5 g 4-GX, 4-hour urine, lactase in intestinal biopsy as gold standard
[5] = 4-hour urine, after correcting biopsy diagnosis
[6] = 4-hour urine, after correction of the biopsy diagnostic result (five discrepancies)
[7] = 4-hour urine, after correction of the biopsy diagnostic result (four discrepancies)
[8] = 4-hour urine, biopsy as gold standard
[9] = 4-hour urine, final criteria of Table 9

`O=C[C@H](O)[C@@H](O)[C@@H](CO)O[C@@H]1O[C@H](CO)[C@H](O)[C@H](O)[C@H]1O` [4-GX, 4-O-β-galactopyranosyl-D-xylose] was tested, and the “Cut-off point, total xylose in 4-hour urine” value (intestinal lactase [1]; 4-GX 0.125 g) was 11.88 mg, the “Cut-off point, total xylose in 5-hour urine” value (intestinal lactase [1]; 4-GX 0.125 g) was 16.72 mg and the “Cut-off point, total xylose in 4-hour urine” value (intestinal lactase [1]; 4-GX 0.250 g) was 20.62 mg. For the same compound, the “Cut-off point, total xylose in 5-hour urine” value (intestinal lactase [1]; 4-GX 0.250 g) was 28.08 mg, the “Cut-off point, total xylose in 4-hour urine” value (intestinal lactase [1]; 4-GX 0.5 g) was 27.58 mg and the “Cut-off point, total xylose in 5-hour urine” value (intestinal lactase [1]; 4-GX 0.5 g) was 37.87 mg. The “Cut-off point, xylose concentration in 90-min blood (increase over basal)” value (“Cut-off point … (increase over basal)” below) (intestinal lactase [1]; 4-GX 0.5 g) was 0.41 mg/dL, the “Cut-off point, total xylose in 4-hour urine” value (intestinal lactase [1]; 4-GX 1 g) was 33.04 mg and the “Cut-off point, total xylose in 5-hour urine” value (intestinal lactase [1]; 4-GX 1 g) was 41.35 mg. For the same compound, the “Cut-off point … (increase over basal)” value (intestinal lactase [1]; 4-GX 1 g) was 0.53 mg/dL, the “Cut-off point, total xylose in 4-hour urine” value (intestinal lactase [1]; 4-GX 3 g) was 45.58 mg and the “Cut-off point, total xylose in 5-hour urine” value (intestinal lactase [1]; 4-GX 3 g) was 69.57 mg and 69.75 mg. For the same compound, the “Cut-off point … (increase over basal)” value (intestinal lactase [1]; 4-GX 3 g) was 0.97 mg/dL, the “Cut-off point, total xylose in 4-hour urine” value (intestinal lactase [1]; 4-GX 6 g) was 87.96 mg and the “Cut-off point, total xylose in 5-hour urine” value (intestinal lactase [1]; 4-GX 6 g) was 110.12 mg. For the same compound, the “Cut-off point … (increase over basal)” value (intestinal lactase [1]; 4-GX 6 g) was 1.44 mg/dL, the “No. Negative” value (intestinal lactase [2]; [3]) was 100 and the “No. Positive (patients presenting intestinal lactase deficiency)” value (intestinal lactase [2]; [3]) was 105. The “Percentage of patients negative” value (intestinal lactase [2]; [3]) was 49%, the “Percentage of patients positive” value (intestinal lactase [2]; [3]) was 51.2% and 51% and the Negative predictive value (intestinal lactase [2]; [4]) was 90%. The Positive predictive value (intestinal lactase [2]; [4]) was 93.3% and 93.33%, the Sensitivity (intestinal lactase [2]; [4]) was 90.7% and 90.74% and the Specificity (intestinal lactase [2]; [4]) was 92.8% and 92.78%. The “sensitivity calculated using the ROC curves” value (intestinal lactase [2]; 4-hour urine samples) was 90.7%, the “specificity calculated using the ROC curves” value (intestinal lactase [2]; 4-hour urine samples) was 93.8% and the “range of recalculated sensitivity, specificity, positive and negative predictive values” (intestinal lactase [2]; 4-hour urine test, after correcting biopsy diagnosis) was 96.00-98.10. The false negatives (intestinal lactase [2]; [5]) was 3.74%, the negative likelihood ratio (intestinal lactase [2]; [5]) was 0.038 and the positive likelihood ratio (intestinal lactase [2]; [5]) was 47.168. For the same compound, the Negative predictive value (intestinal lactase [2]; [6]) was 96.00%, the Positive predictive value (intestinal lactase [2]; [6]) was 98.10% and the Sensitivity (intestinal lactase [2]; [6]) was 96.26%. For the same compound, the Specificity (intestinal lactase [2]; [6]) was 97.96%, the Negative predictive value (intestinal lactase [2]; [7]) was 97.00% and the Positive predictive value (intestinal lactase [2]; [7]) was 99.05%. For the same compound, the Sensitivity (intestinal lactase [2]; [7]) was 97.20%, the Specificity (intestinal lactase [2]; [7]) was 98.98% and the “area under the ROC curve” value (intestinal lactase [2]; [8]) was 0.9282. For the same compound, the false negatives (intestinal lactase [2]; [8]) was 9.3%, the false positives (intestinal lactase [2]; [8]) was 7.2% and the “concordant positive results, percentage” value (intestinal lactase [2]; [9]) was 96.3%. The “final number of concordant positive results” value (intestinal lactase [2]; [9]) was 103, the “negative results (concordant), percentage” value (intestinal lactase [2]; [9]) was 98.0% and the “number of negative results (concordant)” value (intestinal lactase [2]; [9]) was 96.
